Measured values taken from US11014941B2, “Pyrrolopyrimidine derivatives useful as inhibitors of influenza virus replication” (priority 2017, dated 2021).

These compounds were tested against Influenza PB2 (Influenza A virus, UniProt P03428) (assay: biochemical). Details: read-out: Influenza PB2 affinity, IC50.
Format: binding

Chain of Influenza PB2 (P03428 whole entry, looked up): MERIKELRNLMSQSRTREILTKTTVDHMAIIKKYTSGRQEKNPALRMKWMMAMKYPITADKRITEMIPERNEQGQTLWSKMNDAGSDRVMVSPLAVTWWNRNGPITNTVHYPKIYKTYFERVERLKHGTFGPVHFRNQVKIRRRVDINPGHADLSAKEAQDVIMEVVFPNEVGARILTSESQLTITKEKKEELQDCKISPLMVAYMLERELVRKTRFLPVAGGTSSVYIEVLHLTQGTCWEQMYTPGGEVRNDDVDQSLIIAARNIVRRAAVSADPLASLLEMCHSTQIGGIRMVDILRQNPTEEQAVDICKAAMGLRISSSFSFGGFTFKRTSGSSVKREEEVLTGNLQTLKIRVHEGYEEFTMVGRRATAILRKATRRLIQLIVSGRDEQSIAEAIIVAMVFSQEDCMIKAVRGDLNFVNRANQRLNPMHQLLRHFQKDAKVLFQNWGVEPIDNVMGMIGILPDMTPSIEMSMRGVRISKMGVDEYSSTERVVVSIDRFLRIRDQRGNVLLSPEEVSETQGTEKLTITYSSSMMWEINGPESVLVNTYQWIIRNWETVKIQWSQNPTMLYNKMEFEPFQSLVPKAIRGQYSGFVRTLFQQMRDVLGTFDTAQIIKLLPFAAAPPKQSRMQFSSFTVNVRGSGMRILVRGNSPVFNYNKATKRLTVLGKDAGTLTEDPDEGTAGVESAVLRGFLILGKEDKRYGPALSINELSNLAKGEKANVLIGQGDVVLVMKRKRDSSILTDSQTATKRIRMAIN

Structure (SMILES)	IC50 [µM]
C=Cc1cnc2[nH]cc(-c3ncc4c(F)cn([C@@H]5C6CCC(CC6)[C@H]5C(=O)O)c4n3)c2c1 [Compound B210]	1 to 10
O=C(O)C1=C(n2cc(F)c3cnc(-c4c[nH]c5ncc(Cl)cc45)nc32)C2CCC1CC2 [Compound B213]	< 1
N#Cc1cnc2[nH]cc(-c3ncc4c(F)cn([C@@H]5C6CCC(CC6)[C@H]5C(=O)O)c4n3)c2c1 [Compound B214]	1 to 10
CCOC(=O)[C@@H]1C2CCC(CC2)[C@H]1n1cc(F)c2cnc(-c3c[nH]c4ncc(C#N)cc34)nc21 [Compound B215]	> 100
O=C(O)[C@@H]1C2CCC(CC2)[C@H]1n1cc(F)c2cnc(-c3c[nH]c4ncc(C(F)(F)F)cc34)nc21 [Compound B216]	1 to 10
CCOC(=O)[C@@H]1C2CCC(CC2)[C@H]1n1cc(F)c2cnc(-c3c[nH]c4ncc(C(F)(F)F)cc34)nc21 [Compound B217]	> 100
N#Cc1cnc2[nH]cc(-c3ncc4c(Cl)cn([C@@H]5C6CCC(CC6)[C@H]5C(=O)O)c4n3)c2c1 [Compound B218]	> 100
CCOC(=O)[C@@H]1C2CCC(CC2)[C@H]1n1cc(Cl)c2cnc(-c3c[nH]c4ncc(C#N)cc34)nc21 [Compound B219]	> 100
N#Cc1cnccc1-c1cn([C@@H]2C3CCC(CC3)[C@H]2C(=O)O)c2nc(-c3c[nH]c4ncc(Cl)cc34)ncc12 [Compound B220]	10 to 100
CNC(=O)C1=C(n2cc(F)c3cnc(-c4c[nH]c5ncc(Cl)cc45)nc32)C2CCC1CC2 [Compound B221]	1 to 10
O=C(O)C1=C(n2cc(F)c3cnc(-c4c[nH]c5ncc(F)cc45)nc32)C2CCC1CC2 [Compound B222]	< 1
CN(C)C(=O)Cn1cc(-c2c[nH]c3ncc(F)cc23)c2cncnc21 [Compound C1]	10 to 100
CN(C)C(=O)CCn1cc(-c2c[nH]c3ncc(F)cc23)c2cncnc21 [Compound C2]	> 100
COC(=O)CCn1cc(-c2c[nH]c3ncc(F)cc23)c2cncnc21 [Compound C3]	> 100
O=C(O)Cn1cc(-c2c[nH]c3ncc(F)cc23)c2cncnc21 [Compound C4]	> 100
O=C(O)CCn1cc(-c2c[nH]c3ncc(F)cc23)c2cncnc21 [Compound C5]	> 100
CC(Cn1cc(-c2c[nH]c3ncc(F)cc23)c2cncnc21)C(=O)N(C)C (stereo not shown) [Compound C6]	10 to 100
CC(Cn1cc(-c2c[nH]c3ncc(F)cc23)c2cncnc21)C(=O)O (stereo not shown) [Compound C7]	10 to 100
CC(CC(=O)O)n1cc(-c2c[nH]c3ncc(F)cc23)c2cncnc21 (stereo not shown) [Compound C8]	10 to 100
CNC(=O)Cn1cc(-c2c[nH]c3ncc(F)cc23)c2cncnc21 [Compound C9]	10 to 100
CC(C(=O)O)n1cc(-c2c[nH]c3ncc(F)cc23)c2cncnc21 (stereo not shown) [Compound C10]	> 100
CNC(=O)CCn1cc(-c2c[nH]c3ncc(F)cc23)c2cncnc21 [Compound C11]	> 100
CC(=O)NCCn1cc(-c2c[nH]c3ncc(F)cc23)c2cncnc21 [Compound C12]	> 100
CC(C)(C)OC(=O)NCCn1cc(-c2c[nH]c3ncc(F)cc23)c2cncnc21 [Compound C13]	> 100
CNC(=O)NCCn1cc(-c2c[nH]c3ncc(F)cc23)c2cncnc21 [Compound C14]	> 100
COC(=O)NCCn1cc(-c2c[nH]c3ncc(F)cc23)c2cncnc21 [Compound C15]	> 100
CN(C)C(=O)NCCn1cc(-c2c[nH]c3ncc(F)cc23)c2cncnc21 [Compound C16]	> 100
CCOC(=O)C(C)Cn1cc(-c2c[nH]c3ncc(F)cc23)c2cncnc21 (stereo not shown) [Compound C17]	> 100
